We go through 20 molecules from patent US9567301B2, “Pyrrol-1-yl benzoic acid derivatives useful as myc inhibitors” (Whitehead Institute for Biomedical Research, priority 2012, dated 2017).

The subject of one experiment is H2171 cells. Briefly: Cell viability assay (ATPlite), H2171. The note with it: Homo sapiens, NCI-H2171, 72 h, cell viability, three days, ATPlite; NA: inactive under assay conditions. The class given is cell-based, human. The method, then:
(§1) This assay was used for the H2171 and MM1S cell data shown in Table 2, and for the Jurkat (an immortalized line of human T lymphocyte cells), Ly1 (OCI-Ly1 human non-Hodgkin lymphoma cell line), Ly4 (OCI-Ly4 human non-Hodgkin lymphoma cell line), H2172 (NCI-H2172 human non-small cell lung cancer cell line), and CA-46 (a human Burkitt's lymphoma cell line) cell data shown in Table 3 and FIG. 12. Cells were counted and adjusted to 60,000 cells/mL. Using a Biotek EL406, 50 μL of cells are media were distributed into 384 well white plates from Thermo. Immediately after plating, compound in DMSO was distributed to plates. For large plate sets, cells were returned to 37° C. incubator while not in use.
(§2) Compounds were added to plates using a 100 nL 384 well pin transfer manifold on a Janus workstation. Stocks were arrayed in 10 point quadruplicate dose response in DMSO stock in 384 well Greiner compound plates. After addition of compound, plates were incubated for three days in a 37° C. incubator.
(§3) Cell viability was read out using ATPlite from Perkin Elmer. Plates were removed from the incubator and brought to room temperature prior to use. Lyophilized powder was resuspended in lysis buffer and diluted 1:2 with DI water. 25 μL of this solution was added to each well using the Biotek liquid handler. Plates were sealed with adherent aluminum seals prior to vortexing and spinning down at 1000 g for 1 minute. Plates were incubated for 15 minutes at room temperature before signal was read on an Envision Plate Reader.
A general note: ATP-based viability assays read luminescence as a measure of living cells.

The target of another experiment is c-Myc/Max/Ebox DNA (Homo sapiens, UniProt P01106). Briefly: c-Myc/Max/Ebox DNA AlphaScreen assay. The class given is binding. On the set-up: An exemplary assay uses full-length human c-Myc and Max proteins; his6 (cleaved yes); made in house. The note with it: c-Myc/Max/Ebox DNA AlphaScreen; NA: inactive under assay conditions; read-out: Biochemical IC50. The protocol: This protocol was used to generate the biochemical data in Table 2 and FIG. 11. The primary AlphaScreen assay is amenable to 384-well and 1536-well plate formats for HTS. Human his6-c-Myc and his6-Max were used with biotinylated DNA containing a single Ebox sequence (biotin[…]) purchased from MWG Operon. Free c-Myc was generated from his6-c-Myc through thrombin cleavage of the his6 tag. For 384-well plate assays, 10 μL of a 2× solution of free c-Myc (25 nM final), Ni++-coated Acceptor Bead (25 μg/ml final), and biotinylated Ebox oligo (10 nM final) were added to 384-well plates with a Biotek EL406 liquid handler. 100 nL of compounds from stock plates were added by pin transfer using a Janus Workstation (PerkinElmer), allowing the compounds to interact with c-Myc prior to c-Myc binding with Max. In the current assay, DMSO was not allowed to exceed 2% v/v of the assay. 10 μl of 2× master mix containing streptavidin-coated donor beads (25 μg/ml final) and his6-Max (1.25 nM final) were added. AlphaScreen measurements were performed on an Envision 2104 (PerkinElmer) utilizing the manufacturer's protocol. The assay can also be performed in 1536-plate format with 8 μL total volume using two 4 μL additions (instead of […] and 10 μL respectively).
c-Myc/Max/Ebox DNA, sequence (P01106 16-454): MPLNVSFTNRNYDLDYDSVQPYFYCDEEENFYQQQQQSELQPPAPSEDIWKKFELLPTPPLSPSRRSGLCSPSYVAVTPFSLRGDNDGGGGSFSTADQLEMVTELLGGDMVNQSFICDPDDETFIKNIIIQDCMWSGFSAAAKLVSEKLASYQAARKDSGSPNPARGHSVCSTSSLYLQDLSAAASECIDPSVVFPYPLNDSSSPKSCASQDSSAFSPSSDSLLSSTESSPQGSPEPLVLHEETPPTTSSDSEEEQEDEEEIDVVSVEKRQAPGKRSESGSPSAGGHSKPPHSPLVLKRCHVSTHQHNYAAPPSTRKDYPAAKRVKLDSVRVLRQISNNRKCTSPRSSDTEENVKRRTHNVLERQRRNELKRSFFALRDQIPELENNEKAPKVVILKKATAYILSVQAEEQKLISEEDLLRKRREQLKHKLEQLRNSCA
Assays are performed with minor modifications from the manufacturer's protocol (PerkinElmer). Both master mixes were made in room temperature assay buffer (50 mM HEPES, 150 mM NaCl, 0.2% w/v BSA, 0.02% w/v Tween20, 40 μg/ml glycogen, 500 μM DTT, pH 8.0, DTT and glycogen added fresh). Alpha beads were added to respective master solutions and wrapped in foil. All subsequent steps were performed in low light conditions. Solution 1: 2× solution of components with final concentrations of cMyc (25 nM), Ni-coated Acceptor Bead (25 μg/ml), and biotinylated Ebox oligo (10 nM). Solution 2: 2× solution of streptavidin-coated donor beads (25 μg/ml final) and his6-Max (1.25 nM final). […] Solution 1 were added to 384-well plate (AlphaPlate-384, PerkinElmer) with Biotek EL406 liquid handler and the plates were centrifuged at 1000 rpm for 1 minute. 100 nL of compounds from stock plates were added by pin transfer using a Janus Workstation. 10 μL Solution 2 were added with the liquid handler. Plates were sealed with foil to block light exposure and prevent evaporation. Plates were centrifuged at 1000 rpm for 1 minute followed by 2 hour incubation. AlphaScreen measurements were performed on an Envision 2104 utilizing the manufacturer's protocol. Excitation was at 680 nm for donor bead release of singlet oxygen and emission was read with a bandpass filter from 520-620 nm. Glycogen: Roche Diagnostics #10901393001. Plate 1536: Perkin Elmer, 6004350. Plate 384: Perkin Elmer, 6005350. Nickel-His Alpha Beads: 6760619R.
(In general: Alpha assays give light when donor and acceptor beads are brought close together.)

In the next experiment the test system is MM1S cells. Nature of the experiment: Cell viability assay (ATPlite), MM1S. In kind it is cell-based, human. The note with it: Homo sapiens, MM1.S, 72 h, cell viability, three days, ATPlite; NA: inactive under assay conditions. The protocol:
as §1, §2, §3

As a reminder, the EC50 is the midpoint of the concentration-response curve. By IC50 is commonly meant the concentration that inhibits the measured activity by half.

Regarding `Cc1ccc(C)n1-c1ccc(C(=O)O)cc1O` [Compound 7], it took 122 µM to reach a half-maximal effect with H2171 cells (EC50). Moreover, at c-Myc/Max/Ebox DNA, the IC50 was 23.5 µM.

On to `COC(=O)c1ccc(-n2cccc2)cc1O` [Compound 9], for which the EC50 in the experiment on H2171 cells was 229 µM; in the experiment on MM1S cells, 127 µM.

Molecule `Cc1cc(C(=O)O)ccc1-n1c(C)ccc1C` [Compound 11] registered an EC50 in the experiment with H2171 cells of 60.6 µM. The IC50 on c-Myc/Max/Ebox DNA amounted to 45.8 µM.

For the molecule `CC(=O)Oc1cc(-n2c(C)ccc2C)ccc1C(=O)O` [Compound 66], the EC50 is 67.9 µM with H2171 cells and 3570 µM in the experiment on MM1S cells.

On to `Cc1ccc(C)n1-c1cc(C(=O)N2CCOCC2)ccc1C(=O)O` [Compound 75], for which, in the experiment on H2171 cells, the EC50 is 114 µM. Moreover, at c-Myc/Max/Ebox DNA, the IC50 was found to be 8.58 µM.

In turn, `Cc1ccc(C)n1-c1cc(C(=O)N/N=C/c2ncc[nH]2)ccc1C(=O)O` [Compound 81] had an EC50 in the experiment with H2171 cells of 106 µM. The IC50 at c-Myc/Max/Ebox DNA is 2.72 µM.

`COc1ccc(/C=N/NC(=O)c2ccc(C(=O)O)c(-n3c(C)ccc3C)c2)c(OC)c1` [Compound 85]: in the experiment on H2171 cells, a half-maximal effect (EC50) was put at 97.3 µM. For the same molecule, the IC50 at c-Myc/Max/Ebox DNA was determined as 37.9 µM.

Regarding `Cc1ccc(C)n1-c1cc(C(=O)N/N=C/c2ccc(N(C)C)cc2)ccc1C(=O)O` [Compound 87], the EC50 in the experiment with MM1S cells came out at 86.5 µM. On c-Myc/Max/Ebox DNA, the IC50 turned out to be 31.4 µM.

Consider `Cc1ccc(C)n1-c1cc(C(=O)N/N=C/c2c(Cl)ncnc2Cl)ccc1C(=O)O` [Compound 88], for which a half-maximal response in the experiment on MM1S cells (EC50) required 8080 µM. At c-Myc/Max/Ebox DNA, the IC50 was 4.88 µM.

Regarding `Cc1ccc(C)n1-c1cc(C(=O)N/N=C/c2ccc3ccccc3n2)ccc1C(=O)O` [Compound 90], the EC50 in the experiment with MM1S cells was 52.5 µM. Further, at c-Myc/Max/Ebox DNA, the IC50 is 17.5 µM.

`Cc1ccc(C)n1-c1cc(C(=O)N/N=C/c2cc(F)ccc2C(F)(F)F)ccc1C(=O)O` [Compound 91] had an EC50 in the experiment with MM1S cells of 4260 µM. Besides, the IC50 on c-Myc/Max/Ebox DNA was found to be 3.99 µM.

In the experiment on MM1S cells, `Cc1ccc(C)n1-c1cc(C(=O)N/N=C/c2cncnc2)ccc1C(=O)O` [Compound 93] displayed an EC50 of 263 µM. Also, at c-Myc/Max/Ebox DNA, the IC50 was found to be 5.56 µM.

`Cc1ccc(C)n1-c1cc(C(=O)N/N=C/c2c[nH]c3cc(F)ccc23)ccc1C(=O)O` [Compound 96]: in the experiment on H2171 cells, the EC50 stood at 38.1 µM. Also, the 50% inhibitory concentration (IC50) on c-Myc/Max/Ebox DNA turned out to be 34.4 µM.

In the experiment with MM1S cells, `Cc1cc(C)c2c(=O)c(/C=N/NC(=O)c3ccc(C(=O)O)c(-n4c(C)ccc4C)c3)coc2c1` [Compound 97] showed an EC50 of 1040 µM. Also, the IC50 at c-Myc/Max/Ebox DNA was found to be 5.55 µM.

In the experiment with H2171 cells, `COc1ncc(/C=N/NC(=O)c2ccc(C(=O)O)c(-n3c(C)ccc3C)c2)c(OC)n1` [Compound 100] gave an EC50 of 266 µM. In addition, the IC50 on c-Myc/Max/Ebox DNA was determined as 7.67 µM.

`Cc1ccc(C)n1-c1cc(C(=O)N/N=C/c2ccc3cccnc3n2)ccc1C(=O)O` [Compound 105] came in with an EC50 with MM1S cells of 118 µM. The IC50 on c-Myc/Max/Ebox DNA amounted to 2.97 µM.

In turn, `Cc1ccc(C)n1-c1cc(C(=O)N/N=C/c2cccc3ncccc23)ccc1C(=O)O` [Compound 106] yielded an EC50 with H2171 cells of 144 µM. Also, the IC50 on c-Myc/Max/Ebox DNA is 15.1 µM.

With `Cc1ccc(C)n1-c1cc(C(=O)N/N=C/c2cc(F)c(F)c(F)c2)ccc1C(=O)O` [Compound 107], the EC50 in the experiment on H2171 cells was 32.3 µM. In addition, at c-Myc/Max/Ebox DNA, the IC50 worked out at 9.3 µM.

For the molecule `CC(=O)OCOC(=O)c1ccc(C(=O)N/N=C/c2c[nH]cn2)cc1-n1c(C)ccc1C` [Compound 108], the EC50 with H2171 cells was 0.556 µM.

Consider `CC(=O)OCOC(=O)c1ccc(C(=O)N/N=C/c2ccc(-c3nnn[nH]3)cc2)cc1-n1c(C)ccc1C` [Compound 109], for which the 50% effective concentration (EC50) was 1.02 µM in the experiment on H2171 cells and 9.99 µM in the experiment with MM1S cells.
